Measurements reported in patent US9492471B2, “Methods of treating a disease or disorder associated with Bruton'S Tyrosine Kinase” (Celgene Avilomics Research, Inc., priority 2013, dated 2016).
Like-named read-outs stand apart in the source and are kept apart here.

Experiments:
Assay in all cases: HotSpot kinase profiling
Assay type in all cases: biochemical
[1] = target: T1, MEKK3 (Homo sapiens, UniProt Q99759)
T1 construct: purchased Reaction Biology Corp
T1 sequence (Q99759 1-626): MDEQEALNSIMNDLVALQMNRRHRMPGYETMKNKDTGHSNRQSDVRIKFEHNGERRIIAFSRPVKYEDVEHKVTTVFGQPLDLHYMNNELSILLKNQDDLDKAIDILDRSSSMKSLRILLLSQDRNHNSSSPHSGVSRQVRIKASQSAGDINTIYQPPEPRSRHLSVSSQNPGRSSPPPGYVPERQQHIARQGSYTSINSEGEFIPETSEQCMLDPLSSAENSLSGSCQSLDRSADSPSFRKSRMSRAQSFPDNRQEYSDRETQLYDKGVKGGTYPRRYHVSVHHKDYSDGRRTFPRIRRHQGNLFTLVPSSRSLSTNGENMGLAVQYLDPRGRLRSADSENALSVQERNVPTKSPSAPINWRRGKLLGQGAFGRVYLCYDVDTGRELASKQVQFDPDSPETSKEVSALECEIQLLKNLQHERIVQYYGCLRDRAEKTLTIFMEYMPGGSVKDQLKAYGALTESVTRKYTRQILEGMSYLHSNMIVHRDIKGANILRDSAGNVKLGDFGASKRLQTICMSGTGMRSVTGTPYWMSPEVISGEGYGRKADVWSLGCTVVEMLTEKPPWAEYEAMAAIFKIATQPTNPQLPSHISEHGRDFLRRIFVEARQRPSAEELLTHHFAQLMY
Method in brief: (§1)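 P81 filtration radiometric readout; 2 h incubation at room temperature; 0.1% phosphoric acid wash; DMSO negative control; % inhibition, mean of replicate runs.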

[2] = target: T2, PKA (Homo sapiens, UniProt P17612)
T2 construct: purchased Reaction Biology Corp
Method in brief: as §1

[3] = target: T3, HIPK4 (Homo sapiens, UniProt Q8NE63)
T3 construct: purchased Reaction Biology Corp
T3 sequence (Q8NE63 1-616): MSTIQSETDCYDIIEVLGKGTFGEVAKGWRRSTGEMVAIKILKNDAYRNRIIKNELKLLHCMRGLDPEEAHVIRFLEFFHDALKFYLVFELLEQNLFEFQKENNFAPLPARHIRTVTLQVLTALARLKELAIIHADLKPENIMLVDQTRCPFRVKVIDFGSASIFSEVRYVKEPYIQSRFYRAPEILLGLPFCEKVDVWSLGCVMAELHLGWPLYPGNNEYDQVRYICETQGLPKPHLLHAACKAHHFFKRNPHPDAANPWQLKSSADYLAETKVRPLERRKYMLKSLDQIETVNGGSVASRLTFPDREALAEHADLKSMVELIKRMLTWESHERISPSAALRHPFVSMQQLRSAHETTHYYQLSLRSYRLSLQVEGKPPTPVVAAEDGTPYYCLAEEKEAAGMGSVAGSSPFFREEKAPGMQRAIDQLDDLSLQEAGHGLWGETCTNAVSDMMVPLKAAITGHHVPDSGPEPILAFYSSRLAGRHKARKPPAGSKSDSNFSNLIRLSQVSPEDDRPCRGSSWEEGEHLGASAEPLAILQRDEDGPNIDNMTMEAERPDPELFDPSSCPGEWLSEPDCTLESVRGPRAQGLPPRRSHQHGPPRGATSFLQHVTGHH
Method in brief: as §1

[4] = target: T4, GSK3a (Homo sapiens, UniProt P49840)
T4 construct: purchased Reaction Biology Corp
T4 sequence (P49840 whole entry): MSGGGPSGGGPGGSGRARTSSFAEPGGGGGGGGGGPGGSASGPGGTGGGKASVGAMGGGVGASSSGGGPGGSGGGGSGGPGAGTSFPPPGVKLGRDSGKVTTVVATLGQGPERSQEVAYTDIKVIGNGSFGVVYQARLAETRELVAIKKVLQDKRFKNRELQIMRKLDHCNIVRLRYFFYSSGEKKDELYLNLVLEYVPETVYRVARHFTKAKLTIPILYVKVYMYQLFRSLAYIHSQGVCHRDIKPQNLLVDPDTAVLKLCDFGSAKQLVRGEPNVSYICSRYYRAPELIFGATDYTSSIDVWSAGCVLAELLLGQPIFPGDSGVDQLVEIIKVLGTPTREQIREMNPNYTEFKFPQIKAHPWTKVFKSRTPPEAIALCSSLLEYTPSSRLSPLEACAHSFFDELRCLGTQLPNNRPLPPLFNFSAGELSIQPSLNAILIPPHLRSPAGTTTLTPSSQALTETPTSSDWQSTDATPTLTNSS
Method in brief: as §1

[5] = target: T5, TXK (Homo sapiens, UniProt P42681)
T5 construct: purchased Reaction Biology Corp
T5 sequence (P42681 1-527): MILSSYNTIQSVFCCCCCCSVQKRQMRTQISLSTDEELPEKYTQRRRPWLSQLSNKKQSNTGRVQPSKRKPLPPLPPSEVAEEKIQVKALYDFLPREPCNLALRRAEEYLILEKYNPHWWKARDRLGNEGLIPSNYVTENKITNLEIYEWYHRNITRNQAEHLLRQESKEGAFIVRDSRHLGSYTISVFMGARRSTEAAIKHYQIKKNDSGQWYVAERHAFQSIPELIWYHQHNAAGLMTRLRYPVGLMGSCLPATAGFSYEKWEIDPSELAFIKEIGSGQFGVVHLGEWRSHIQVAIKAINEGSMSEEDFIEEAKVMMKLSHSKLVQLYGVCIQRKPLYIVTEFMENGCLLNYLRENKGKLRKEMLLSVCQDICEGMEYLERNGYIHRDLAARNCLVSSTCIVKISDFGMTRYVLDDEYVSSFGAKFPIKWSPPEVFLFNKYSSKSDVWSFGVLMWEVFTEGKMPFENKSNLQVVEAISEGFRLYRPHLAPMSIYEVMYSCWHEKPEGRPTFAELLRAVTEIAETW
Method in brief: as §1

[6] = target: T6, CSK (Homo sapiens, UniProt P41240)
T6 construct: purchased Reaction Biology Corp
T6 sequence (P41240 whole entry): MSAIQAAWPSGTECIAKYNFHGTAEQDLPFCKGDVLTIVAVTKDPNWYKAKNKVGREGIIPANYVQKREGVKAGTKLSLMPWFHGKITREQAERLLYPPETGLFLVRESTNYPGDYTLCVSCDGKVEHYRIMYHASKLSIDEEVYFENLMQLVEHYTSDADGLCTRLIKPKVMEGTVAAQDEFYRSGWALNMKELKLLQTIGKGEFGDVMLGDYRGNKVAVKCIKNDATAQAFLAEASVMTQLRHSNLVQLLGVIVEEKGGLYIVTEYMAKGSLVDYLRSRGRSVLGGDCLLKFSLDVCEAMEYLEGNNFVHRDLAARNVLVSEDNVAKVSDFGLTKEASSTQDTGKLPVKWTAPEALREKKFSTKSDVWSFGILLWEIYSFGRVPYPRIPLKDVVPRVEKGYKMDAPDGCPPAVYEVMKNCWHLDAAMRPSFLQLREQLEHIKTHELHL
Method in brief: as §1

[7] = target: T7, RIPK3 (Homo sapiens, UniProt Q9Y572)
T7 construct: purchased Reaction Biology Corp
T7 sequence (Q9Y572 whole entry): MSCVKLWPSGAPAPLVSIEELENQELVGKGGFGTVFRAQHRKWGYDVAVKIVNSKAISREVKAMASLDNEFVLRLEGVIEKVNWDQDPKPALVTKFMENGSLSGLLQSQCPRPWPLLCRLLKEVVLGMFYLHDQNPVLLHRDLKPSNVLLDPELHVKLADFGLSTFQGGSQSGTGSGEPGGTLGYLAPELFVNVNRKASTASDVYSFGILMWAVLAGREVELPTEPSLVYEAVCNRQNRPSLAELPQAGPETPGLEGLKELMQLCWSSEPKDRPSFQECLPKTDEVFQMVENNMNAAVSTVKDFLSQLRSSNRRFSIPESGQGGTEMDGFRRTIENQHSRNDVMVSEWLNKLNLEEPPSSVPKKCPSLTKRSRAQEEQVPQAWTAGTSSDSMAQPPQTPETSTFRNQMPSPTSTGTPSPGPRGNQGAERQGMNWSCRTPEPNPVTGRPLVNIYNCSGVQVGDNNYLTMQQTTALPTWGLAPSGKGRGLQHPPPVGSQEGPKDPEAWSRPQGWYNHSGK
Method in brief: as §1

[8] = target: T8, PKCtheta (Homo sapiens, UniProt Q04759)
T8 construct: purchased Reaction Biology Corp
T8 sequence (Q04759 whole entry): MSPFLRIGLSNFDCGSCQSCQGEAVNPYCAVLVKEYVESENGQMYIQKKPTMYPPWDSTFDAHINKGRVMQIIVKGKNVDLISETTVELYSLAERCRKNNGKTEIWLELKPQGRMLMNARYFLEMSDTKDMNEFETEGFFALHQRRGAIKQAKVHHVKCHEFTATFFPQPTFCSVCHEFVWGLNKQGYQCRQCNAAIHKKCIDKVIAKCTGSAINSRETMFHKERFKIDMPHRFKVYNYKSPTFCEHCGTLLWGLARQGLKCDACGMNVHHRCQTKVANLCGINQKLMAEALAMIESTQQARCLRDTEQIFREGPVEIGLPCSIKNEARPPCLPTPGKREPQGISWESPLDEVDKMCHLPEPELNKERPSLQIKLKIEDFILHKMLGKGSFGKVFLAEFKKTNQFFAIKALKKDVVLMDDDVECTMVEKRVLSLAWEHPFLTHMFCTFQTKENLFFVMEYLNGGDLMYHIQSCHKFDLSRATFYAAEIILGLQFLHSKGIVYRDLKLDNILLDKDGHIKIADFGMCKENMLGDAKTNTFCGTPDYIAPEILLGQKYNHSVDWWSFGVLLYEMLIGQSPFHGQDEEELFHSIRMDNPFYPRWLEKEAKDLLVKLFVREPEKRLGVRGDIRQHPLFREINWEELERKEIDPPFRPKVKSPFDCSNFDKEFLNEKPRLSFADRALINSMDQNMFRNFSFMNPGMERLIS
Method in brief: as §1

[9] = target: T9, PLK2 (Homo sapiens, UniProt Q9NYY3)
T9 construct: purchased Reaction Biology Corp
T9 sequence (Q9NYY3 whole entry): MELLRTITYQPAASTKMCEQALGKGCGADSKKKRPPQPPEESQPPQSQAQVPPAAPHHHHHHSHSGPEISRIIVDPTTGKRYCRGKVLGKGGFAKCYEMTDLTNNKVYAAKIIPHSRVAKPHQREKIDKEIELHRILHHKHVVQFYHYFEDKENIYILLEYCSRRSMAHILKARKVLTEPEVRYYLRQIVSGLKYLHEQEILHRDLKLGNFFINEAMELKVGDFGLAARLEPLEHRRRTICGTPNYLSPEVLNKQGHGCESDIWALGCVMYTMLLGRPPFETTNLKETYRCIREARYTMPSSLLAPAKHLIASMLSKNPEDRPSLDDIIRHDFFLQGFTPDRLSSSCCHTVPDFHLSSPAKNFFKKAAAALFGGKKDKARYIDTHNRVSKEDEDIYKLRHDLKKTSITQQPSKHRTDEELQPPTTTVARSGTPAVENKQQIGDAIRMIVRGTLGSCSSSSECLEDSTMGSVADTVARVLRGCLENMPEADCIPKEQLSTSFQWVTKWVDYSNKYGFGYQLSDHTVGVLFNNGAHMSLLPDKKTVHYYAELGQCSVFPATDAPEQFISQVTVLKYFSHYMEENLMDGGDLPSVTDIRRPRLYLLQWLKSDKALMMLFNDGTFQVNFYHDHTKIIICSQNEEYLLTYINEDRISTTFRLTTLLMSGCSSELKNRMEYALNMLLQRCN
Method in brief: as §1

[10] = read-out: % Enzyme Activity (relative to DMSO controls) Run 1
[11] = read-out: % Enzyme Activity (relative to DMSO controls) Run 2

`C=CC(=O)Nc1cccc(Nc2nc(Nc3ccc(OCCOC)c(F)c3)ncc2F)c1` [Compound 2] was tested, and the inhibition at 3 µM [1] was -4.03%, the remaining activity at 3 µM [1, 10] was 102% and the remaining activity at 3 µM [1, 11] was 106%. For the same compound, the inhibition at 3 µM [2] was 14.5%, the remaining activity at 3 µM [2, 10] was 85.8% and the remaining activity at 3 µM [2, 11] was 85.1%. The inhibition at 3 µM [3] was 6.31%, the remaining activity at 3 µM [3, 10] was 93.6% and the remaining activity at 3 µM [3, 11] was 93.8%. For the same compound, the inhibition at 3 µM [4] was 24.5%, the remaining activity at 3 µM [4, 10] was 76% and the remaining activity at 3 µM [4, 11] was 75%. For the same compound, the inhibition at 3 µM [5] was 99.8%, the remaining activity at 3 µM [5, 10] was 0.42% and the remaining activity at 3 µM [5, 11] was 0.03%. It also gave an inhibition at 3 µM [6] of 18.2%, a remaining activity at 3 µM [6, 10] of 81.7% and a remaining activity at 3 µM [6, 11] of 81.8%. It also gave an inhibition at 3 µM [7] of -18.8%, a remaining activity at 3 µM [7, 10] of 117% and a remaining activity at 3 µM [7, 11] of 121%. For the same compound, the inhibition at 3 µM [8] was 16.1%, the remaining activity at 3 µM [8, 10] was 83.7% and the remaining activity at 3 µM [8, 11] was 84.1%. For the same compound, the inhibition at 3 µM [9] was 13.3%, the remaining activity at 3 µM [9, 10] was 86.6% and the remaining activity at 3 µM [9, 11] was 86.7%.
